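Five compound concentrations were applied to cells in 96-well plates for 48 hours; endpoints were derived by simple linear interpolation of the resulting dose-response curve. GI50 = concentration required for 50% inhibition of growth. The concentration for full growth arrest is given as TGI.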

In PubChem BioAssay (NCI) one finds TGI and GI50 data, which are given here for 22 compounds.

Some test systems named below: EKVX NSCLC; HCC-2998 colon; HS 578T breast; HT29 colon; KM12 colon; MALME-3M melanoma; MOLT-4 leukemia; SNB-75 CNS; T-47D breast; U251 CNS.
What all share (test): DTP human tumour cell line panel, 48 h

What is called TGI is the concentration at which net growth stops. Read a low TGI as greater sensitivity of the cells. With `C=C1C(=O)OC2C1C(OC(=O)/C(C)=C/C)CC1(C)C(=O)CCC(=C)C21` (centres undefined), the TGI in the assay on EKVX NSCLC came to 33.8 µM; with HCC-2998 colon, 26.6 µM; with HS 578T breast, 78 µM; in the assay on HT29 colon it was 22 µM; in the assay on KM12 colon it was 32 µM; in the assay with MALME-3M melanoma it was 23.3 µM. Further, the TGI in the assay on MOLT-4 leukemia was > 26.5 µM; with SNB-75 CNS, 32 µM; with T-47D breast, 43.3 µM; in the assay on U251 CNS, > 54.4 µM.

A word on the GI50: it is the concentration giving 50% growth inhibition. With `Oc1cc2cccc[n+]2c2cccc(Cl)c12`, the GI50 with EKVX NSCLC was 38.4 µM; with HCC-2998 colon, 52.4 µM; in the assay on HT29 colon, 40.7 µM; in the assay on MALME-3M melanoma, 18.4 µM; in the assay with MOLT-4 leukemia, 34.9 µM; with U251 CNS, 42 µM. Also, the TGI in the assay on MALME-3M melanoma was 40.4 µM.

As for `[C-]#[O+].[C-]#[O+].[Ir].[O-]c1cccc2cccnc12`, the GI50 in the assay with EKVX NSCLC, in the assay with HCC-2998 colon, with HT29 colon, with KM12 colon, in the assay with MALME-3M melanoma and with SNB-75 CNS was > 100 µM throughout. The GI50 in the assay on U251 CNS is > 100 µM. Besides, the TGI in the assay on EKVX NSCLC, in the assay with HCC-2998 colon, in the assay on HT29 colon, in the assay on KM12 colon, in the assay on MALME-3M melanoma and in the assay with SNB-75 CNS was > 100 µM each time. Besides, in the assay with U251 CNS, the TGI is > 100 µM.

Take `CC(C)C(N=Cc1ccccc1O)C(=O)O` (centres undefined): the TGI in the assay with EKVX NSCLC, with HS 578T breast, in the assay on HT29 colon, in the assay on KM12 colon, in the assay on MALME-3M melanoma and in the assay on MOLT-4 leukemia was > 100 µM throughout. The TGI in the assay on T-47D breast and in the assay with U251 CNS was > 100 µM in each case.

On to `Fc1ccc(-c2ccc(-c3nnc(-c4cc(F)c(Cl)cc4Cl)o3)o2)cc1Cl`, for which the GI50 was 26.5 µM in the assay with EKVX NSCLC; 41.3 µM with HCC-2998 colon; 22.3 µM with HS 578T breast; 22.7 µM with HT29 colon; 26.1 µM in the assay with KM12 colon; 18.8 µM in the assay with MALME-3M melanoma. In addition, the GI50 in the assay on MOLT-4 leukemia was 24.2 µM; with SNB-75 CNS, 30.6 µM; in the assay on T-47D breast, 13.7 µM; in the assay on U251 CNS, 32.8 µM. The TGI in the assay with EKVX NSCLC was > 100 µM; in the assay with HCC-2998 colon, > 100 µM; in the assay on HS 578T breast, 67.6 µM; in the assay with HT29 colon, 50.9 µM; in the assay on KM12 colon, 74.1 µM; with MALME-3M melanoma, 59 µM. The TGI was 85.2 µM in the assay on MOLT-4 leukemia, > 100 µM in the assay on SNB-75 CNS, 45.1 µM in the assay with T-47D breast and > 100 µM in the assay on U251 CNS.

On to `O=C(/C=C/c1ccc(O)cc1)NCCc1ccc(O)cc1`, for which the TGI in the assay on EKVX NSCLC, in the assay with HS 578T breast, in the assay on HT29 colon, in the assay with KM12 colon, in the assay on MALME-3M melanoma and in the assay on T-47D breast was > 12.5 µM each time. In addition, the TGI in the assay on U251 CNS is > 12.5 µM.

On to `c1ccc2sc(C3(N4CCCCC4)CCCC3)cc2c1`, for which the TGI in the assay with EKVX NSCLC is 22 µM; in the assay on HCC-2998 colon it was 13.5 µM; in the assay with HS 578T breast, 33.4 µM; with HT29 colon, 13.5 µM; with KM12 colon, 23.4 µM; with MALME-3M melanoma, 29.1 µM. The TGI in the assay with MOLT-4 leukemia was determined as 19.8 µM; in the assay on SNB-75 CNS, 30.6 µM.

On to `O=S(=O)(c1ccc(I)cc1)N(c1ccccc1)S(=O)(=O)C(F)(F)C(F)(F)C(F)(F)C(F)(F)F`, for which the total growth inhibition concentration (TGI) is > 100 µM with EKVX NSCLC; 99.5 µM in the assay on HS 578T breast; 51.2 µM in the assay with HT29 colon; > 100 µM in the assay with KM12 colon; > 100 µM with MALME-3M melanoma; > 100 µM with MOLT-4 leukemia. For the same compound, the TGI in the assay on T-47D breast and in the assay on U251 CNS was > 100 µM each time.

For the compound `C[N+]1(C)CCC(C#N)(c2ccccc2)CC1`, the TGI in the assay on EKVX NSCLC, in the assay with HCC-2998 colon, with HS 578T breast, in the assay with HT29 colon, in the assay on KM12 colon and with MALME-3M melanoma was > 100 µM each time. Besides, the TGI in the assay on MOLT-4 leukemia, in the assay with SNB-75 CNS, with T-47D breast and in the assay with U251 CNS was > 100 µM in each case.

For the compound `CC(=O)OCC1OC(O[C@@H]2c3c(O)c4c(c(O)c3C3=C(NN(c5ccc([N+](=O)[O-])cc5[N+](=O)[O-])[Se]3=O)[C@@]2(C)O)C(=O)c2ccccc2C4=O)C(OC(C)=O)C(OC(C)=O)C1OC(C)=O` (some centres undefined), the TGI is 0.677 µM with EKVX NSCLC; 1.2 µM in the assay on HCC-2998 colon; 0.927 µM with HS 578T breast; 0.57 µM with HT29 colon; 1.58 µM in the assay on KM12 colon; 0.355 µM in the assay with MALME-3M melanoma. For the same compound, the TGI stood at 0.23 µM with MOLT-4 leukemia, 6.24 µM in the assay on SNB-75 CNS, 1.46 µM with T-47D breast and 0.458 µM in the assay on U251 CNS.

`O=S(O)c1cc(Cl)cc(Cl)c1O`: the TGI in the assay on EKVX NSCLC, in the assay with HCC-2998 colon, in the assay on HT29 colon, with KM12 colon, in the assay with MALME-3M melanoma and in the assay with MOLT-4 leukemia was > 100 µM in each case. Besides, the TGI in the assay with SNB-75 CNS and in the assay with U251 CNS was > 100 µM in each case.

As for `COc1ccc(SC(C)(SC)c2ccccn2)c(OC)n1` (centres undefined), the concentration for total growth inhibition (TGI) with EKVX NSCLC, in the assay with HCC-2998 colon, in the assay on HS 578T breast, in the assay with HT29 colon, in the assay on KM12 colon and with MALME-3M melanoma was > 100 µM throughout. In addition, the TGI in the assay with MOLT-4 leukemia and with U251 CNS was > 100 µM in each case.

For the compound `O=C1/C(=C\c2ccc(-c3ccc(Cl)cc3Cl)o2)SC2N=C(COc3ccc(Cl)cc3)NN12` (centres undefined), the TGI was 86.5 µM with EKVX NSCLC; > 100 µM in the assay on HCC-2998 colon; 87.8 µM in the assay with HS 578T breast; > 100 µM in the assay with HT29 colon; > 100 µM with KM12 colon; > 100 µM in the assay with MALME-3M melanoma. Moreover, the TGI in the assay on MOLT-4 leukemia was > 100 µM; in the assay with SNB-75 CNS, > 100 µM; in the assay with T-47D breast, > 100 µM; in the assay on U251 CNS, 98.2 µM.

For the compound `N#C/C=C1\C=CC(O)C(O)C1OC1OC(CO)C(O)C(O)C1O` (centres undefined), the TGI in the assay on EKVX NSCLC, in the assay with HCC-2998 colon, in the assay on HS 578T breast, with HT29 colon, in the assay on KM12 colon and in the assay with MALME-3M melanoma was > 100 µM throughout. For the same compound, the TGI in the assay with MOLT-4 leukemia, in the assay with SNB-75 CNS, in the assay with T-47D breast and with U251 CNS was > 100 µM throughout.

Take `S=C1N(c2ccc(Cl)cc2)C2=C(N=Nc3ccccc3)C(=Nc3ccccc3S2)N1c1ccccn1`: the TGI with EKVX NSCLC turned out to be 26.6 µM; in the assay with HCC-2998 colon, 35.7 µM; in the assay with HS 578T breast it was 32.7 µM; in the assay on HT29 colon, 35.6 µM; with KM12 colon, 23.8 µM; in the assay on MALME-3M melanoma, 19.8 µM. Further, the TGI came to 31.7 µM in the assay on MOLT-4 leukemia, 49.2 µM in the assay with SNB-75 CNS, 0.899 µM in the assay on T-47D breast and 23.7 µM in the assay on U251 CNS.

Turning to `CN(C)Cc1ccc(C(=O)Nc2ccc3ncnc(Nc4ccc(Oc5cccc(F)c5)c(Cl)c4)c3c2)cc1`, the GI50 is 1.3 µM in the assay with EKVX NSCLC; 1.67 µM in the assay on HCC-2998 colon; 1.75 µM with KM12 colon; 1.53 µM in the assay with MALME-3M melanoma; 1.55 µM in the assay with MOLT-4 leukemia; 1.48 µM in the assay on SNB-75 CNS. Moreover, the TGI worked out at 2.7 µM in the assay on EKVX NSCLC; 3.11 µM with HCC-2998 colon; 3.21 µM in the assay with KM12 colon; 3.01 µM in the assay on MALME-3M melanoma; 3.21 µM with MOLT-4 leukemia; 2.84 µM in the assay on SNB-75 CNS.

In the case of `O=S(=O)(O)c1c(N=Nc2c(O)ccc3ccccc23)ccc2ccccc12`, the TGI with EKVX NSCLC, with HS 578T breast, in the assay on HT29 colon, in the assay with KM12 colon, with MALME-3M melanoma and in the assay on MOLT-4 leukemia was > 100 µM each time. Further, the TGI in the assay on SNB-75 CNS, with T-47D breast and in the assay on U251 CNS was > 100 µM in each case.

As for `Nc1nc(SCc2ccccc2)c2ncn(Cc3ccccc3)c2n1`, the TGI is > 100 µM in the assay with EKVX NSCLC; > 100 µM in the assay on HCC-2998 colon; > 100 µM in the assay with HS 578T breast; > 100 µM in the assay with HT29 colon; > 100 µM with KM12 colon; > 89.1 µM in the assay on MALME-3M melanoma. Moreover, the TGI in the assay on MOLT-4 leukemia, in the assay on SNB-75 CNS, in the assay with T-47D breast and in the assay with U251 CNS was > 100 µM throughout.

Take `COC(=O)C1=CC[C@@H]2C(C(=O)O)=CO[C@@H](OC3OC(CO)C(O)C(O)C3O)[C@H]12` (some centres undefined): the TGI in the assay with EKVX NSCLC, in the assay on HCC-2998 colon, with HT29 colon, in the assay on KM12 colon, in the assay with MALME-3M melanoma and with MOLT-4 leukemia was > 300 µM each time. Also, the TGI with SNB-75 CNS and in the assay on U251 CNS was > 300 µM throughout.

As to `O=C1c2ccccc2-c2ccc(N=[N+]([O-])c3ccc4c(c3)C(=O)c3ccccc3-4)cc21`, the TGI with EKVX NSCLC, in the assay with HCC-2998 colon, in the assay on HS 578T breast, in the assay with HT29 colon, with KM12 colon and in the assay on MALME-3M melanoma was > 100 µM each time. The TGI in the assay on MOLT-4 leukemia, in the assay with SNB-75 CNS, in the assay on T-47D breast and in the assay with U251 CNS was > 100 µM throughout.

On to `CC1(C)COC(/C=C/C2=NC(C)(C)CO2)=N1`, for which the TGI was determined as 41.8 µM in the assay with EKVX NSCLC; 23.1 µM with HS 578T breast; 98.4 µM with HT29 colon; 37.1 µM in the assay with KM12 colon; 41.9 µM in the assay on MALME-3M melanoma; 36.1 µM in the assay with MOLT-4 leukemia. In addition, the results for the TGI with SNB-75 CNS, with T-47D breast and in the assay on U251 CNS were > 100 µM, 34 µM and 64.3 µM, respectively.

As for `S=C(Nc1ccc(Cl)cc1)Nc1ccc(Cl)cc1` (tested in a mixture with another compound), the GI50 with EKVX NSCLC is 2.25 µM; in the assay with HCC-2998 colon it was 2.07 µM; in the assay with HS 578T breast, 2.37 µM; with HT29 colon it was 1.96 µM; with KM12 colon, 2.76 µM; in the assay with MALME-3M melanoma it was 2.55 µM. Further, the figures for the GI50 in the assay on SNB-75 CNS, in the assay with T-47D breast and in the assay on U251 CNS were 1.65 µM, 3.75 µM and 1.64 µM, respectively. The TGI with EKVX NSCLC was > 100 µM; with HCC-2998 colon it was 5.5 µM; in the assay on HS 578T breast, > 100 µM; in the assay on HT29 colon, 4.88 µM; with KM12 colon it was 9.1 µM; in the assay on MALME-3M melanoma it was > 100 µM. The TGI in the assay on SNB-75 CNS stood at 4.87 µM; with T-47D breast, 23.9 µM; in the assay with U251 CNS, 3.52 µM.
